# Experimental data published in patent publication US11116759B2, “Method of treating cancer” (Exelixis, Inc., priority 2011, dated 2021).
# Assays:
# [1] = tested on: melanoma, including ocular melanoma; test: Phase 2 randomized discontinuation trial in adults with melanoma (NCT00940225); format: in vivo, human
# Experimental: Compound 1 was used in a Phase 2 randomized discontinuation trial study of adults with melanoma, including ocular melanoma (See NCT00940225, Abstract 371). Compound 1 was administered at a daily dose of 100 mg (125 mg salt equivalent). The study endpoints included objective response rate (ORR) per mRECIST in the lead-in stage, and progression-free survival in the randomized stage. The eligibility criteria included: (a) pathologically and radiologically confirmed diagnosis of advanced melanoma; (b) cutaneous, mucosal, or ocular subtypes; (c) up to two lines of prior systemic treatment (not including immunotherapy); (d) documented progressive disease and measurable target lesion(s) per mRECIST; and (e) no known brain metastases. Tumors were assessed by CT/MRI at baseline and every 6 weeks thereafter. Archival tumor tissue was retained for genotyping and biomarker analysis.
# [2] = tested on: endothelial cells and tumor cells; test: Apoptosis of endothelial cells and tumor cells; format: cell-based
# [3] = tested on: xenograft tumor models; test: Xenograft tumor models; format: in vivo
# [4] = tested on: pancreatic neuroendocrine tumor; test: Murine pancreatic neuroendocrine tumor model; format: in vivo
# [5] = Phase 1 clinical study, tolerability; format: in vivo; settings: most common adverse events fatigue, diarrhea, anorexia, rash, palmar-plantar erythrodysesthesia
smiles,measurement,setting,value
"COc1cc2nccc(Oc3ccc(NC(=O)C4(C(=O)Nc5ccc(F)cc5)CC4)cc3)c2cc1OC [Compound 1, N-(4-{[6,7-bis(methyloxy)quinolin-4-yl]oxy}phenyl)-N′-(4-fluorophenyl)cyclopropane-1,1-dicarboxamide]",Patients with objective tumor shrinkage,"[1]; all enrolled patients with melanoma, daily dose of 100 mg",sixty
same,Best response,"[1]; ocular melanoma Patients 5, 6, 14, 15, 18, 20, 22, 26, 28 and 29 (FIGS. 4A and 4B)",stable disease
same,Patients with evidence of objective tumor regression,"[1]; patients with ocular cancer, six months",48%
same,Disease control rate,"[1]; patients with ocular cancer, week 12",14%
same,Patients showing a positive disease control rate,[1]; patients with ocular melanoma who were tested (FIG. 3),Eight of the fourteen
same,Partial response observed,"[1]; patients with ocular melanoma, week 6",One
same,Induction of apoptosis,[2],rapidly induces apoptosis
same,Effect on tumor,[3],causes tumor regression
same,Overall survival,[4],substantially improves overall survival
same,Tumor invasiveness and metastasis,[4],significantly reduces tumor invasiveness and metastasis
same,Tolerability,[5],generally well-tolerated
